Source: patent publication US20200016159A1, “N3-CYCLICALLY SUBSTITUTED THIENOURACILS AND USE THEREOF” (Bayer Aktiengesellschaft, priority 2016, published 2020)

Biological target: T1, human adenosine A2b receptor (Homo sapiens, UniProt P29275)
T1 sequence (P29275 1-332): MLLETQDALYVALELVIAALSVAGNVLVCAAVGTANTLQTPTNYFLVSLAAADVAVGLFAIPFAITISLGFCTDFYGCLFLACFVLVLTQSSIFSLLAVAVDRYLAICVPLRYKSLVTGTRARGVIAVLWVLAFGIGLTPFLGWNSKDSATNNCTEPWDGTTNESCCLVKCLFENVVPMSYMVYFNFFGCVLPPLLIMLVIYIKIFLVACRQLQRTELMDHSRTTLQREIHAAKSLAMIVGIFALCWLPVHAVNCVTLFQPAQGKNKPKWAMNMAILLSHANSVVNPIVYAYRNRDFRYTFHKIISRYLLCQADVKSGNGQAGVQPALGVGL
Assay: Cellular in vitro reporter gene test for A2b receptor activity (antagonism of NECA)
Assay type: cell-based
Parameters: expressed in transfected cells; host or cells: CHO-K1 (Chinese hamster ovary) with CRE-luciferase reporter
Settings: recombinant CHO-K1 cells, CRE-luciferase reporter, co-incubation with EC50 concentration of NECA, 3 hours
Outline: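 CHO-K1 cells expressing recombinant human A2b receptor plus a CRE-driven firefly luciferase reporter. Compounds co-incubated with NECA at its same-day EC50 concentration; luminescence read 3 hours after NECA addition. IC50 values, sometimes means of several determinations rounded to two significant figures.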

Row | Compound | IC50
1 | Cc1c(Cn2nc[nH]c2=O)sc2c1c(=O)n(C1CC1)c(=O)n2C[C@@H]1CCCO1 [Example 51, 3-Cyclopropyl-5-methyl-6-[(5-oxo-4,5-dihydro-1H-1,2,4-triazol-1-yl)methyl]-1-[(2S)-tetrahydrofuran-2-ylmethyl]thieno[2,3-d]pyrimidine-2,4(1H, 3H)-dione] | 0.32 µM
2 | Cc1c(CN2CCNC(=O)C2=O)sc2c1c(=O)n(C1CC1)c(=O)n2CCC(F)(F)F [Example 13, 3-Cyclopropyl-6-[(2,3-dioxopiperazin-1-yl)methyl]-5-methyl-1-(3,3,3-trifluoropropyl)thieno[2,3-d]pyrimidine-2,4(1H,3H)-dione] | 0.004 µM
3 | Cc1c(CN2CCNC2=O)sc2c1c(=O)n(C1CC1C)c(=O)n2CCSC(F)(F)F (single isomer, unassigned) [Example 280, 5-Methyl-3-(2-methylcyclopropyl)-6-[(2-oxoimidazolidin-1-yl)methyl]-1-{2-[(trifluoromethyl)sulfanyl]ethyl}thieno[2,3-d]pyrimidine-2,4(1H,3H)-dione] | 0.0034 µM
4 | Cc1c(CN2CCNC2=O)sc2c1c(=O)n(C1CC1C)c(=O)n2CCOC(F)(F)F (single isomer, unassigned) [Example 263, 5-Methyl-3-(2-methylcyclopropyl)-6-[(2-oxoimidazolidin-1-yl)methyl]-1-[2-(trifluoromethoxy)ethyl]thieno[2,3-d]pyrimidine-2,4(1H,3H)-dione] | 0.0011 µM
5 | Cc1c(Cn2cc[nH]c2=O)sc2c1c(=O)n(C1CC1)c(=O)n2CCC(F)(F)F [Example 14, 3-Cyclopropyl-5-methyl-6-[(2-oxo-2,3-dihydro-1H-imidazol-1-yl)methyl]-1-(3,3,3-trifluoropropyl)thieno[2,3-d]pyrimidine-2,4(1H,3H)-dione] | 0.0037 µM
6 | Cc1c(Cn2nc[nH]c2=O)sc2c1c(=O)n(C1CC1)c(=O)n2CC1CCC(F)(F)C1 (single isomer, unassigned) [Example 211, 3-Cyclopropyl-1-[(3,3-difluorocyclopentyl)methyl]-5-methyl-6-[(5-oxo-4,5-dihydro-1H-1,2,4-triazol-1-yl)methyl]thieno[2,3-d]pyrimidine-2,4(1H,3H)-dione] | 1.3 µM
7 | COCCn1c(=O)n(C2CCCC2)c(=O)c2c(C)c(CN3CCNC3=NC(=O)OC)sc21 [Example 191, Methyl [1-{[3-cyclopentyl-1-(2-methoxyethyl)-5-methyl-2,4-dioxo-1,2,3,4-tetrahydrothieno[2,3-d]pyrimidin-6-yl]methyl}imidazolidin-2-ylidene]carbamate] | 0.018 µM
8 | Cc1c(CN2CCNC(=O)C2=O)sc2c1c(=O)n(C1(C)CC1)c(=O)n2CCC(F)(F)F [Example 59, 6-[(2,3-Dioxopiperazin-1-yl)methyl]-5-methyl-3-(1-methylcyclopropyl)-1-(3,3,3-trifluoropropyl)thieno[2,3-d]pyrimidine-2,4(1H,3H)-dione] | 0.0093 µM
9 | CCn1c(=O)n(C2CC2C)c(=O)c2c(C)c(CN3CCNC3=O)sc21 (single isomer, unassigned) [Example 226, 1-Ethyl-5-methyl-3-(2-methylcyclopropyl)-6-[(2-oxoimidazolidin-1-yl)methyl]thieno[2,3-d]pyrimidine-2,4(1H,3H)-dione] | 0.0019 µM
10 | COCCn1c(=O)n(C2CCCC2)c(=O)c2c(C)c(CN3CCNC(=O)C3=O)sc21 [Example 192, 3-Cyclopentyl-6-[(2,3-dioxopiperazin-1-yl)methyl]-1-(2-methoxyethyl)-5-methylthieno[2,3-d]pyrimidine-2,4(1H,3H)-dione] | 0.14 µM
11 | Cc1c(Cn2nc[nH]c2=O)sc2c1c(=O)n(C1(C)CCC1)c(=O)n2CCC(F)(F)F [Example 138, 5-Methyl-3-(1-methylcyclobutyl)-6-[(5-oxo-4,5-dihydro-1H-1,2,4-triazol-1-yl)methyl]-1-(3,3,3-trifluoropropyl)thieno[2,3-d]pyrimidine-2,4(1H,3H)-dione] | 0.26 µM
12 | Cc1c(Cn2nc[nH]c2=O)sc2c1c(=O)n(C1CC1)c(=O)n2CC1CC1(F)F (single isomer, unassigned; enantiomer 2) [Example 22, 3-Cyclopropyl-1-[(2,2-difluorocyclopropyl)methyl]-5-methyl-6-[(5-oxo-4,5-dihydro-1H-1,2,4-triazol-1-yl)methyl]thieno[2,3-d]pyrimidine-2,4(1H,3H)-dione (enantiomer 2)] | 0.28 µM
13 | COCCn1c(=O)n(C2CC2C(F)(F)F)c(=O)c2c(C)c(CN3CCNC3=O)sc21 (single isomer, unassigned) [Example 296, 1-(2-Methoxyethyl)-5-methyl-6-[(2-oxoimidazolidin-1-yl)methyl]-3-[2-(trifluoromethyl)cyclopropyl]thieno[2,3-d]pyrimidine-2,4(1H,3H)-dione] | 0.016 µM
14 | Cc1c(Cn2nc[nH]c2=O)sc2c1c(=O)n(C1CC1C)c(=O)n2CCOC(F)(F)F (racemic) [Example 276, 5-Methyl-3-(2-methylcyclopropyl)-6-[(5-oxo-4,5-dihydro-1H-1,2,4-triazol-1-yl)methyl]-1-[2-(trifluoromethoxy)ethyl]thieno[2,3-d]pyrimidine-2,4(1H,3H)-dione] | 0.002 µM
15 | Cc1c(Cn2nc[nH]c2=O)sc2c1c(=O)n(C1CC1)c(=O)n2CC1CCC1 [Example 18, 1-(Cyclobutylmethyl)-3-cyclopropyl-5-methyl-6-[(5-oxo-4,5-dihydro-1H-1,2,4-triazol-1-yl)methyl]thieno[2,3-d]pyrimidine-2,4(1H,3H)-dione] | 0.025 µM
16 | COCCn1c(=O)n([C@H]2C[C@@H](OC)C2)c(=O)c2c(C)c(CN3CCNC3=NC(=O)OC)sc21 [Example 161, Methyl [1-{[3-(cis-3-methoxycyclobutyl)-1-(2-methoxyethyl)-5-methyl-2,4-dioxo-1,2,3,4-tetrahydrothieno[2,3-d]pyrimidin-6-yl]methyl}imidazolidin-2-ylidene]carbamate] | 0.13 µM
17 | Cc1c(Cn2nc[nH]c2=O)sc2c1c(=O)n(C1CC3(CCC3)C1)c(=O)n2CCC(F)(F)F [Example 178, 5-Methyl-6-[(5-oxo-4,5-dihydro-1H-1,2,4-triazol-1-yl)methyl]-3-(spiro[3.3]hept-2-yl)-1-(3,3,3-trifluoropropyl)thieno[2,3-d]pyrimidine-2,4(1H,3H)-dione] | 0.026 µM
18 | Cc1c(CN2CCNC2=O)sc2c1c(=O)n(C1CC1)c(=O)n2CC1CC1(F)F (racemic) [Example 19, 3-Cyclopropyl-1-[(2,2-difluorocyclopropyl)methyl]-5-methyl-6-[(2-oxoimidazolidin-1-yl)methyl]thieno[2,3-d]pyrimidine-2,4(1H,3H)-dione (racemate)] | 0.019 µM
19 | COCCn1c(=O)n(C2(C(F)(F)F)CC2)c(=O)c2c(C)c(CN3CCNC(=O)C3=O)sc21 [Example 88, 6-[(2,3-Dioxopiperazin-1-yl)methyl]-1-(2-methoxyethyl)-5-methyl-3-[1-(trifluoromethyl)cyclopropyl]thieno[2,3-d]pyrimidine-2,4(1H,3H)-dione] | 0.69 µM
20 | Cc1c(Cn2nc[nH]c2=O)sc2c1c(=O)n(C1CC1)c(=O)n2CC1CCC(F)(F)C1 (single isomer, unassigned) [Example 210, 3-Cyclopropyl-1-[(3,3-difluorocyclopentyl)methyl]-5-methyl-6-[(5-oxo-4,5-dihydro-1H-1,2,4-triazol-1-yl)methyl]thieno[2,3-d]pyrimidine-2,4(1H,3H)-dione] | 0.2 µM
21 | Cc1c(CN2CCNC2=O)sc2c1c(=O)n(C1CC1(C)C)c(=O)n2CCC(F)(F)F (single isomer, unassigned) [Example 102, 3-(2,2-Dimethylcyclopropyl)-5-methyl-6-[(2-oxoimidazolidin-1-yl)methyl]-1-(3,3,3-trifluoropropyl)thieno[2,3-d]pyrimidine-2,4(1H,3H)-dione] | 0.0073 µM
22 | Cc1c(CN2CCNC2=O)sc2c1c(=O)n([C@H]1C[C@@H]1C)c(=O)n2CC1CC1(F)F (stereo partly drawn) [Example 249, 1-[(2,2-Difluorocyclopropyl)methyl]-5-methyl-3-[(1S,2S)-2-methylcyclopropyl]-6-[(2-oxoimidazolidin-1-yl)methyl]thieno[2,3-d]pyrimidine-2,4(1H,3H)-dione] | 0.0019 µM
23 | COC(=O)N=C1NCCN1Cc1sc2c(c1C)c(=O)n(C1CC(C)(C)C1)c(=O)n2CCC(F)(F)F [Example 166, Methyl [1-{[3-(3,3-dimethylcyclobutyl)-5-methyl-2,4-dioxo-1-(3,3,3-trifluoropropyl)-1,2,3,4-tetrahydrothieno[2,3-d]pyrimidin-6-yl]methyl}imidazolidin-2-ylidene]carbamate] | 0.0047 µM
24 | CO[C@H]1C[C@H](n2c(=O)c3c(C)c(CN4CCNC4=O)sc3n(CCC(F)(F)F)c2=O)C1 [Example 144, 3-(trans-3-Methoxycyclobutyl)-5-methyl-6-[(2-oxoimidazolidin-1-yl)methyl]-1-(3,3,3-trifluoropropyl)thieno[2,3-d]pyrimidine-2,4(1H,3H)-dione] | 0.01 µM
25 | Cc1c(CN2CCNC2=NC#N)sc2c1c(=O)n(C1(C)CC1)c(=O)n2CCC(F)(F)F [Example 57, [1-{[5-Methyl-3-(1-methylcyclopropyl)-2,4-dioxo-1-(3,3,3-trifluoropropyl)-1,2,3,4-tetrahydrothieno[2,3-d]pyrimidin-6-yl]methyl}imidazolidin-2-ylidene]cyanamide] | 0.0044 µM
